Measurements: patent US20250002450A1, “CATIONIC STEROID COMPOUNDS, METHOD OF OBTAINING THEREOF, FORMULATIONS COMPRISING THEREOF AND THEIR USES” (UNIVERSIDADE DO PORTO, priority 2021, published 2025)
Values after ≈ are worked out from the molar mass of the structure shown. Where two headings read alike, the source gives them in different places.

Tests used:
Experiment in all cases: Antibacterial MIC/MBC (broth microdilution)
[1] = tested on: E. coli 2252 (COL-resistant); assay type: cell-based, Escherichia coli
Description: (§1) Twelve reference bacterial strains and nine MDR clinically relevant bacterial strains were used in this study. Gram-negative bacteria comprised reference strains E. coli ATCC 25922, K. pneumoniae ATCC 13883, Salmonella enterica serovar Typhimurium CECT 443, P. aeruginosa ATCC 27853, A. baumannii ATCC 19606, C. jejuni ATCC 33560 (ATCC—American Type Culture Collection; CECT—Colección Espanola de Cultivos Tipo); clinical isolates E. coli SA/2, an extended-spectrum β-lactamase (ESBL)-producing strain and P. aeruginosa 33b, a pan-drug-resistant isolate; and animal isolates C. jejuni P5/4, a ciprofloxacin-resistant strain, C. jejuni 4432, C. jejuni 4433, C. jejuni 4448, and E. coli 2252, a COL-resistant strain [42]. Gram-positive strains included S. aureus ATCC 29213, E. faecalis ATCC 29212, S. pyogenes ATCC 19615, and environmental isolates methicillin-resistant S. aureus (MRSA) 66/1 [43], and VAN-resistant enterococci (VRE) E. faecalis B3/101 [44]. Gram-negative fish pathogens Yersinia ruckeri ATCC 29473, Listonella anguillarum ATCC 1924, and Tenacibaculum maritimum ATCC 43397 were also included.
(§2) Strains were kept in Trypto-Casein Soy agar (TSA—Biokar Diagnostics, Allone, Beauvais, France) slants and, before each assay, were sub-cultured in Mueller-Hinton agar (MHA—Biokar Diagnostics, Allone, Beauvais, France). Y. ruckeri ATCC 29473 and L. anguillarum ATCC 1924 were kept in Nutrient Agar (Condalab, Madrid, Spain) and T. maritimum ATCC 43397 was kept in TMM agar (Condalab, Madrid, Spain), and were sub-cultured in the respective culture media before each assay. For S. pyogenes ATCC 19615, CAMHB was supplemented with 3.75% lysed horse blood (LBH—Oxoid, Basingstoke, England), whereas for C. jejuni it was supplemented with 2.5% LHB. Colony-forming unit counts of the inoculum were conducted to determine the initial inoculum size (which should be approximately 5×10^5 CFU/mL). Sterility and growth controls were included in each assay. The 96-well U-shaped untreated polystyrene microtiter plates were incubated for 20 h at 37 degrees C. (42 degrees C. for C. jejuni, in a microaerophilic atmosphere) and the minimal inhibitory concentration (MIC) was determined as the lowest concentration of compound that prevented visible growth. The minimal bactericidal concentration (MBC) was determined by spreading 100 μL of the content of the wells with no visible growth on MH plates. The MBC was determined as the lowest concentration of compound that killed 99.9% of the initial inoculum after overnight incubation at 37 degrees C. Two independent assays were performed for reference and MDR strains.
(§3) An initial screening of the antibacterial activity of the compounds was performed by the Kirby-Bauer disk diffusion method, as recommended by the Clinical and Laboratory Standards Institute (CLSI). Briefly, sterile 6 mm blank paper disks (Oxoid, Basingstoke, England) impregnated with 15 μg of each compound were placed on inoculated MH agar plates. A blank disk with dimethylsulfoxide (DMSO) was used as a negative control. MH inoculated plates were incubated for 18-20 h at 37 degrees C. At the end of incubation, the inhibition halos where measured. The MIC was used to determine the antibacterial activity of each compound, in accordance with the recommendations of the CLSI. Two-fold serial dilutions of the compounds were prepared in Mueller-Hinton Broth 2 (MHB2—Sigma-Aldrich, St. Louis, MO, USA) within the concentration range of 0.062-64 μg/mL. CTX ranging between 0.031-16 μg/mL was used as a control. Sterility and growth controls were included in each assay. Purity checks and colony counts of the inoculum suspensions were also performed in order to ensure that the final inoculum density closely approximates the intended number (5×10^5 CFU/mL). The MIC was determined as the lowest concentration of compound that inhibited growth of the bacteria. The MBC was assessed by spreading 10 μL of culture collected from wells showing no visible growth on MH agar plates. […]

E. coli SA/2 (ESBL) = assay type: cell-based, Escherichia coli
Description: as §1, §2, §3

P. aeruginosa 33b (PDR) = assay type: cell-based, Pseudomonas aeruginosa; details: for MBC / MIC: P. aeruginosa 33b (PDR)
Description: as §1, §2, §3

[2] = tested on: Acinetobacter baumannii ATCC 19606; assay type: cell-based; details: for antibacterial activity (in words): A. baumannii ATCC 19606; for MBC / MIC: Acinetobacter baumannii ATCC 19606
In short: (§4)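 Two-fold serial dilutions in Mueller-Hinton broth 2 (0.062-64 μg/mL), inoculum about 5×10^5 CFU/mL, 20 h at 37 degrees C. MIC was the lowest concentration preventing visible growth; MBC was the lowest concentration killing 99.9% of the inoculum after plating wells without growth on MH agar.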

[3] = tested on: Campylobacter jejuni ATCC 33560; assay type: cell-based; details: for MBC / MIC: Campylobacter jejuni ATCC 33560
[4] = tested on: Listonella anguilarum ATCC 1924; assay type: cell-based; details: for antibacterial activity (in words): Listonella anguilarum; for MBC / MIC: Listonella anguilarum ATCC 1924
In short: as §4

[5] = tested on: Staphylococcus aureus ATCC 29213; assay type: cell-based
In short: as §4

C. jejuni 4432 = assay type: cell-based, Campylobacter jejuni
Description: as §1, §2, §3

C. jejuni 4433 = assay type: cell-based, Campylobacter jejuni
Description: as §1, §2, §3

C. jejuni 4448 = assay type: cell-based, Campylobacter jejuni
Description: as §1, §2, §3

C. jejuni P5/4 = assay type: cell-based, Campylobacter jejuni
Description: as §1, §2, §3

S. aureus 66/1 (MRSA) = assay type: cell-based, Staphylococcus aureus
Description: as §1, §2, §3

E. faecalis B3/101 (VRE) = assay type: cell-based, Enterococcus faecalis; details: for antibacterial activity (in words): E. faecalis B3/101; for MBC / MIC: E. faecalis B3/101 (VRE)
Description: as §1, §2, §3

[6] = tested on: Enterococcuss faecalis ATCC 29212; assay type: cell-based, Enterococcus faecalis; details: for antibacterial activity (in words): E. faecalis ATCC 29212; for MBC / MIC: Enterococcuss faecalis ATCC 29212
Description: as §1, §2, §3

[7] = tested on: Streptococcuss pyogenes ATCC 19615; assay type: cell-based, Streptococcus pyogenes; details: for MBC / MIC: Streptococcuss pyogenes ATCC 19615
Description: as §1, §2, §3

[8] = Campylobacter jejuni, read-out: MBC
[9] = Campylobacter jejuni, read-out: MIC

C[C@H](CCC(=O)NCCN)[C@H]1CC[C@H]2[C@@H]3CC[C@@H]4C[C@H](O)CC[C@]4(C)[C@H]3C[C@H](O)[C@]12C [Compound 1, (R)—N-(2-aminoethyl)-4-((3R,5R,8R,9S,10S,12S,13R,14S,17R)-3,12-dihydroxy-10,13-dimethylhexadecahydro-1H-cyclopenta[a]phenanthren-17-yl) pentanamida]
antibacterial activity (in words) ([1]; E. coli 2252): active | MIC ([1]; E. coli 2252 (COL-resistant)): 64 µg/mL (≈ 147 µM) | antibacterial activity (in words) (E. coli SA/2 (ESBL); E. coli SA/2): active | MBC (E. coli SA/2 (ESBL); E. coli SA/2 (ESBL)): 32 µg/mL (≈ 73.6 µM) | MIC (E. coli SA/2 (ESBL); E. coli SA/2 (ESBL)): 32 µg/mL (≈ 73.6 µM) | antibacterial activity (in words) (P. aeruginosa 33b (PDR); P. aeruginosa 33b): active | MBC (P. aeruginosa 33b (PDR)): >64 µg/mL | MIC (P. aeruginosa 33b (PDR)): 64 µg/mL (≈ 147 µM) | antibacterial activity (in words) [2]: displayed an inhibitory effect | MBC [2]: 64 µg/mL (≈ 147 µM) | MIC [2]: 64 µg/mL (≈ 147 µM) | antibacterial activity (in words) ([3]; C. jejuni ATCC 33560): showed antimicrobial activity | MBC [3]: 64 µg/mL (≈ 147 µM) | MIC [3]: 64 µg/mL (≈ 147 µM) | antibacterial activity (in words) [4]: active | MBC [4]: 32 µg/mL (≈ 73.6 µM) | MIC [4]: 16 µg/mL (≈ 36.8 µM) | MBC [5]: 16 µg/mL (≈ 36.8 µM) | MIC [5]: 16 µg/mL (≈ 36.8 µM) | MBC (C. jejuni 4432): 64 µg/mL (≈ 147 µM) | MIC (C. jejuni 4432): 64 µg/mL (≈ 147 µM) | antibacterial activity (in words) (C. jejuni 4432): showed antimicrobial activity | MBC (C. jejuni 4433): 64 µg/mL (≈ 147 µM) | MIC (C. jejuni 4433): 64 µg/mL (≈ 147 µM) | antibacterial activity (in words) (C. jejuni 4433): showed antimicrobial activity | MBC (C. jejuni 4448): 64 µg/mL (≈ 147 µM) | MIC (C. jejuni 4448): 64 µg/mL (≈ 147 µM) | antibacterial activity (in words) (C. jejuni 4448): showed antimicrobial activity | MBC (C. jejuni P5/4): 32 µg/mL (≈ 73.6 µM) | MIC (C. jejuni P5/4): 32 µg/mL (≈ 73.6 µM) | antibacterial activity (in words) (C. jejuni P5/4): active | MBC (S. aureus 66/1 (MRSA)): 32 µg/mL (≈ 73.6 µM) | MIC (S. aureus 66/1 (MRSA)): 32 µg/mL (≈ 73.6 µM) | antibacterial activity (in words) (E. faecalis B3/101 (VRE)): displayed the same effect | MBC (E. faecalis B3/101 (VRE)): 32 µg/mL (≈ 73.6 µM) | MIC (E. faecalis B3/101 (VRE)): 32 µg/mL (≈ 73.6 µM) | antibacterial activity (in words) [6]: exhibited antimicrobial activity | MBC [6]: 32 µg/mL (≈ 73.6 µM) | MIC [6]: 16 µg/mL (≈ 36.8 µM) | antibacterial activity (in words) ([7]; S. pyogenes ATCC 19615): active | MBC [7]: 64 µg/mL (≈ 147 µM) | MIC [7]: 64 µg/mL (≈ 147 µM)

C[C@H](CCC(=O)N1CCNCC1)[C@H]1CC[C@H]2[C@@H]3CC[C@@H]4C[C@H](O)CC[C@]4(C)[C@H]3C[C@H](O)[C@]12C [Compound 9, (R)-4-((3R,5R,8R,9S,10S,12S,13R,14S,17R)-3,12-dihydroxy-10,13-dimethylhexadecahydro-1H-cyclopenta[a]phenanthren-17-yl)-1-(piperazin-1-yl) pentan-1-one]
MBC ([1]; Escherichia coli, E. coli 2252 (COL-resistant), read-out: MBC): > 64 µg/mL | MIC ([1]; Escherichia coli, E. coli 2252 (COL-resistant), read-out: MIC): > 64 µg/mL | MBC (E. coli SA/2 (ESBL); Escherichia coli): > 64 µg/mL | MIC (E. coli SA/2 (ESBL); Escherichia coli): > 64 µg/mL | MBC (P. aeruginosa 33b (PDR); Pseudomonas aeruginosa, read-out: MBC): > 64 µg/mL | MIC (P. aeruginosa 33b (PDR); Pseudomonas aeruginosa, read-out: MIC): > 64 µg/mL | antibacterial activity (in words) [2]: displayed an inhibitory effect | MBC ([2]; ATCC19606, read-out: MBC): 64 µg/mL (≈ 139 µM) | MIC ([2]; ATCC19606, read-out: MIC): 64 µg/mL (≈ 139 µM) | MBC ([3]; ATCC33560, read-out: MBC): > 64 µg/mL | MIC ([3]; ATCC33560, read-out: MIC): > 64 µg/mL | antibacterial activity (in words) [4]: active | MBC ([4]; read-out: MBC): 64 µg/mL (≈ 139 µM) | MIC ([4]; read-out: MIC): 64 µg/mL (≈ 139 µM) | MBC ([5]; ATCC29213, read-out: MBC): 64 µg/mL (≈ 139 µM) | MIC ([5]; ATCC29213, read-out: MIC): 64 µg/mL (≈ 139 µM) | MBC (C. jejuni 4432; [8]): > 64 µg/mL | MIC (C. jejuni 4432; [9]): > 64 µg/mL | MBC (C. jejuni 4433; [8]): > 64 µg/mL | MIC (C. jejuni 4433; [9]): > 64 µg/mL | MBC (C. jejuni 4448; [8]): > 64 µg/mL | MIC (C. jejuni 4448; [9]): > 64 µg/mL | MBC (C. jejuni P5/4; [8]): > 64 µg/mL | MIC (C. jejuni P5/4; [9]): > 64 µg/mL | MBC (S. aureus 66/1 (MRSA); Staphylococcus aureus, read-out: MBC): 64 µg/mL (≈ 139 µM) | MIC (S. aureus 66/1 (MRSA); Staphylococcus aureus, read-out: MIC): 64 µg/mL (≈ 139 µM) | antibacterial activity (in words) (E. faecalis B3/101 (VRE)): displayed the same effect | MBC (E. faecalis B3/101 (VRE); Enterococcus faecalis, read-out: MBC): > 64 µg/mL | MIC (E. faecalis B3/101 (VRE); Enterococcus faecalis, read-out: MIC): 32 µg/mL (≈ 69.5 µM) | antibacterial activity (in words) [6]: exhibited antimicrobial activity | MBC ([6]; Enterococcus faecalis, ATCC29212, read-out: MBC): 64 µg/mL (≈ 139 µM) | MIC ([6]; Enterococcus faecalis, ATCC29212, read-out: MIC): 64 µg/mL (≈ 139 µM) | MBC ([7]; Streptococcus pyogenes, ATCC19615, read-out: MBC): > 64 µg/mL | MIC ([7]; Streptococcus pyogenes, ATCC19615, read-out: MIC): > 64 µg/mL
